We go through 27 molecules from patent US9951065B2 (Gilead Sciences, Inc., priority 2015, dated 2018).

For this test, the target named is T1, IDO1 (Homo sapiens, UniProt P14902).
T1 construct: HeLa cells were treated with a test compound in the presence of IFNγ, which induces IDO1 expression; host or cells: H1-HeLa cells, IDO1 induced with IFNγ
T1 sequence (P14902 whole entry): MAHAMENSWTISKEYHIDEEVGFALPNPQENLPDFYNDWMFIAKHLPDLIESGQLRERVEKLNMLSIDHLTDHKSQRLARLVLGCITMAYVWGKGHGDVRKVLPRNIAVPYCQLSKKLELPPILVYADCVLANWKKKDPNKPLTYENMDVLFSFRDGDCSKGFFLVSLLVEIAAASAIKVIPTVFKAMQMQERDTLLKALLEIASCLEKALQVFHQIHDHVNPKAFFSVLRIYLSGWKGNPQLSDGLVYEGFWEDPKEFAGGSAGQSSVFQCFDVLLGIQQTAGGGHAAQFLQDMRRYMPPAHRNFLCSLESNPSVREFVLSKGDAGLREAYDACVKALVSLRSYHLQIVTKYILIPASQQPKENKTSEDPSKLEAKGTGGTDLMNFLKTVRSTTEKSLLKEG
Kind of test: Cell-based (HeLa) assay for measurement of IDO1 inhibition (kynurenine levels in supernatant after IFNγ induction). As to conditions: HeLa cells, IFNγ-induced IDO1, kynurenine in supernatant, 48 hour incubation; geometric mean of a minimum of four determinations. In a few lines: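 HeLa cells, 1,250 per well, treated with compound (0.5% DMSO final) plus IFNγ to induce IDO1, for 48 h. Supernatant kynurenine measured by TCA hydrolysis at 60 °C, then p-dimethylaminobenzaldehyde, absorbance 480 nm. EC50 from a four-parameter fit normalized to −/+IFNγ controls; geometric mean of at least four runs.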
Usually EC50 stands for the concentration that produces a half-maximal response. The low end stands for higher potency in that assay, the high end for lower potency in that assay. Turning to `CN(C)C1(CNc2nc3c(F)c(F)cc(/C(=N/O)Nc4ccc(F)c(Cl)c4)c3[nH]2)CCCCC1` [Example 450, N-(3-chloro-4-fluorophenyl)-2-(((1-(dimethylamino)cyclohexyl)methyl)amino)-4,5-difluoro-N′-hydroxy-1H-benzo[d]imidazole-7-carboximidamide], the concentration for a half-maximal effect (EC50) turned out to be 1.59 µM. This lies in the single-digit micromolar range. Next, `CN1CCCCC(Nc2nc3c(F)c(F)cc(/C(=N/O)Nc4ccc(F)c(Cl)c4)c3[nH]2)C1` (stereo not drawn) [Example 451, N-(3-chloro-4-fluorophenyl)-4,5-difluoro-N′-hydroxy-2-((1-methylazepan-3-yl)amino)-1H-benzo[d]imidazole-7-carboximidamide]: 0.205 µM. In the case of `O/N=C(\Nc1ccc(F)c(Cl)c1)c1cc(F)c(F)c2nc(NCCN3CC[C@H](O)C3)[nH]c12` [Example 452, (S)—N-(3-chloro-4-fluorophenyl)-4,5-difluoro-N′-hydroxy-2-((2-(3-hydroxypyrrolidin-1-yl)ethyl)amino)-1H-benzo[d]imidazole-7-carboximidamide] it was 0.568 µM. `COCCN1CCCC(Nc2nc3c(F)c(F)cc(/C(=N/O)Nc4ccc(F)c(Cl)c4)c3[nH]2)C1` (stereo not drawn) [Example 453, N-(3-chloro-4-fluorophenyl)-4,5-difluoro-N′-hydroxy-2-((1-(2-methoxyethyl)piperidin-3-yl)amino)-1H-benzo[d]imidazole-7-carboximidamide]: the concentration for a half-maximal effect (EC50) was found to be 0.651 µM. In the case of `COCCN1CCC(Nc2nc3c(F)c(F)cc(/C(=N/O)Nc4ccc(F)c(Cl)c4)c3[nH]2)C1` (stereo not drawn) [Example 454, N-(3-chloro-4-fluorophenyl)-4,5-difluoro-N′-hydroxy-2-((1-(2-methoxyethyl)pyrrolidin-3-yl)amino)-1H-benzo[d]imidazole-7-carboximidamide] it was 0.247 µM; in that of `CC(C)N1CCCC(Nc2nc3c(F)c(F)cc(C(=NO)Nc4ccc(F)c(Cl)c4)c3[nH]2)C1` (stereo not drawn) [Example 455, N-(3-chloro-4-fluorophenyl)-4,5-difluoro-N′-hydroxy-2-((1-isopropylpiperidin-3-yl)amino)-1H-benzo[d]imidazole-7-carboximidamide], 0.376 µM; in that of `COC1CN(CCNc2nc3c(F)c(F)cc(/C(=N/O)Nc4ccc(F)c(Cl)c4)c3[nH]2)C1` [Example 456, N-(3-chloro-4-fluorophenyl)-4,5-difluoro-N′-hydroxy-2-((2-(3-methoxyazetidin-1-yl)ethyl)amino)-1H-benzo[d]imidazole-7-carboximidamide], 0.274 µM. In the case of `CN1CC[C@@H](Nc2nc3c(F)c(F)cc(/C(=N/O)Nc4ccc(F)c(Cl)c4)c3[nH]2)C1` [Example 457, (R)—N-(3-chloro-4-fluorophenyl)-4,5-difluoro-N′-hydroxy-2-((1-methylpyrrolidin-3-yl)amino)-1H-benzo[d]imidazole-7-carboximidamide] it was 0.271 µM; in that of `CO[C@@H]1CN(C)C[C@H]1Nc1nc2c(F)c(F)cc(/C(=N/O)Nc3ccc(F)c(Cl)c3)c2[nH]1` [Example 458, N-(3-chloro-4-fluorophenyl)-4,5-difluoro-N′-hydroxy-2-(((3R,4R)-4-methoxy-1-methylpyrrolidin-3-yl)amino)-1H-benzo[d]imidazole-7-carboximidamide], 0.261 µM; in that of `CN1CCC[C@H](Nc2nc3c(F)c(F)cc(/C(=N/O)Nc4cccc(Cl)c4)c3[nH]2)C1` [Example 459, (S)—N-(3-chlorophenyl)-4,5-difluoro-N′-hydroxy-2-((1-methylpiperidin-3-yl)amino)-1H-benzo[d]imidazole-7-carboximidamide], 0.337 µM.

With `CN1CCC[C@@H](Nc2nc3c(F)c(F)cc(/C(=N/O)Nc4cccc(Cl)c4)c3[nH]2)C1` [Example 460, (R)—N-(3-chlorophenyl)-4,5-difluoro-N′-hydroxy-2-((1-methylpiperidin-3-yl)amino)-1H-benzo[d]imidazole-7-carboximidamide], the midpoint of the response, the EC50, lay at 0.193 µM. Compared with the last molecule, the EC50 is about 1.7-fold lower. As to `CN(C)C1CCCC1Nc1nc2c(F)c(F)cc(/C(=N/O)Nc3ccc(F)c(Cl)c3)c2[nH]1` (stereo not drawn) [Example 461, N-(3-chloro-4-fluorophenyl)-2-((2-(dimethylamino)cyclopentyl)amino)-4,5-difluoro-N′-hydroxy-1H-benzo[d]imidazole-7-carboximidamide], a half-maximal effect (EC50) was put at 0.472 µM. In the case of `O/N=C(\Nc1ccc(F)c(Cl)c1)c1cc(F)c(F)c2nc(N[C@H]3CCCCNC3)[nH]c12` [Example 462, (S)-2-(azepan-3-ylamino)-N-(3-chloro-4-fluorophenyl)-4,5-difluoro-N′-hydroxy-1H-benzo[d]imidazole-7-carboximidamide] it was 1.43 µM.

The molecule `O/N=C(\Nc1ccc(F)c(Cl)c1)c1cc(F)c(F)c2nc(N[C@@H]3CCCCNC3)[nH]c12` [Example 463, (R)-2-(azepan-3-ylamino)-N-(3-chloro-4-fluorophenyl)-4,5-difluoro-N′-hydroxy-1H-benzo[d]imidazole-7-carboximidamide] showed an EC50 of 1.02 µM.

As for `O/N=C(\Nc1ccc(F)c(Cl)c1)c1cc(F)c(F)c2nc(NC3CCNC3)[nH]c12` (stereo not drawn) [Example 464, N-(3-chloro-4-fluorophenyl)-4,5-difluoro-N′-hydroxy-2-(pyrrolidin-3-ylamino)-1H-benzo[d]imidazole-7-carboximidamide], the concentration giving a half-maximal response (EC50) worked out at 2.35 µM. Next, `O/N=C(\Nc1ccc(F)c(Cl)c1)c1cc(F)c(F)c2nc(N[C@@H]3CCCN(C4COC4)C3)[nH]c12` [Example 465, (R)-N-(3-chloro-4-fluorophenyl)-4,5-difluoro-N′-hydroxy-2-((1-(oxetan-3-yl)piperidin-3-yl)amino)-1H-benzo[d]imidazole-7-carboximidamide]: 0.957 µM; `CC1CCN(C)C(CNc2nc3c(F)c(F)cc(/C(=N/O)Nc4ccc(F)c(Cl)c4)c3[nH]2)C1` (stereo not drawn) [Example 466, N-(3-chloro-4-fluorophenyl)-2-(((1,4-dimethylpiperidin-2-yl)methyl)amino)-4,5-difluoro-N′-hydroxy-1H-benzo[d]imidazole-7-carboximidamide]: 0.685 µM.

Regarding `O/N=C(\Nc1ccc(F)c(Cl)c1)c1cc(F)c(F)c2nc(NCC3COCCN3)[nH]c12` (stereo not drawn) [Example 467, N-(3-chloro-4-fluorophenyl)-4,5-difluoro-N′-hydroxy-2-((morpholin-3-ylmethyl)amino)-1H-benzo[d]imidazole-7-carboximidamide], it took 2.12 µM to reach a half-maximal effect (EC50). Consider `O/N=C(\Nc1ccc(F)c(Cl)c1)c1cc(F)c(F)c2nc(N[C@@H]3CNC[C@@H]3O)[nH]c12` [Example 468, N-(3-chloro-4-fluorophenyl)-4,5-difluoro-N′-hydroxy-2-(((3R,4S)-4-hydroxypyrrolidin-3-yl)amino)-1H-benzo[d]imidazole-7-carboximidamide], for which the half-maximal effective concentration (EC50) is > 10 µM. In turn, `CN1[C@@H]2CCC(Nc3nc4c(F)c(F)cc(/C(=N/O)Nc5ccc(F)c(Cl)c5)c4[nH]3)[C@H]1CC2` (stereo partly drawn) [Example 469, N-(3-chloro-4-fluorophenyl)-4,5-difluoro-N′-hydroxy-2-(((1R,5R)-8-methyl-8-azabicyclo[3.2.1]octan-2-yl)amino)-1H-benzo[d]imidazole-7-carboximidamide] came in with an EC50 of 0.959 µM. This lies in the sub-micromolar range. In the case of `O/N=C(\Nc1ccc(F)c(Cl)c1)c1cc(F)c(F)c2nc(NCCN3CCC[C@H]3C(F)(F)F)[nH]c12` [Example 470, (S)-N-(3-chloro-4-fluorophenyl)-4,5-difluoro-N′-hydroxy-2-((2-(2-(trifluoromethyl)pyrrolidin-1-yl)ethyl)amino)-1H-benzo[d]imidazole-7-carboximidamide] it was 4.2 µM; in that of `O/N=C(\Nc1ccc(F)c(Cl)c1)c1cc(F)c(F)c2nc(NCC34CCCN3CCC4)[nH]c12` [Example 471, N-(3-chloro-4-fluorophenyl)-4,5-difluoro-2-(((hexahydro-1H-pyrrolizin-7a-yl)methyl)amino)-N′-hydroxy-1H-benzo[d]imidazole-7-carboximidamide], 0.852 µM; in that of `CC1(C)CNC1CNc1nc2c(F)c(F)cc(/C(=N/O)Nc3ccc(F)c(Cl)c3)c2[nH]1` (stereo not drawn) [Example 472, N-(3-chloro-4-fluorophenyl)-2-(((3,3-dimethylazetidin-2-yl)methyl)amino)-4,5-difluoro-N′-hydroxy-1H-benzo[d]imidazole-7-carboximidamide], 2.45 µM. In the case of `O/N=C(\Nc1ccc(F)c(Cl)c1)c1cc(F)c(F)c2nc(NC3COCCC3N3CCCC3)[nH]c12` (stereo not drawn) [Example 473, N-(3-chloro-4-fluorophenyl)-4,5-difluoro-N′-hydroxy-2-((4-(pyrrolidin-1-yl)tetrahydro-2H-pyran-3-yl)amino)-1H-benzo[d]imidazole-7-carboximidamide] it was 1.03 µM; in that of `N[C@@H]1CCCC[C@@H]1Nc1nc2c(F)c(F)cc(/C(=N/O)Nc3ccc(F)c(Cl)c3)c2[nH]1` [Example 474, 2-(((1S,2R)-2-aminocyclohexyl)amino)-N-(3-chloro-4-fluorophenyl)-4,5-difluoro-N′-hydroxy-1H-benzo[d]imidazole-7-carboximidamide], 7.58 µM. In the case of `CN1Cc2ccccc2C(Nc2nc3c(F)c(F)cc(/C(=N/O)Nc4ccc(F)c(Cl)c4)c3[nH]2)C1` (stereo not drawn) [Example 475, N-(3-chloro-4-fluorophenyl)-4,5-difluoro-N′-hydroxy-2-((2-methyl-1,2,3,4-tetrahydroisoquinolin-4-yl)amino)-1H-benzo[d]imidazole-7-carboximidamide] it was 1.99 µM; in that of `CCN(CC)[C@@H]1COC[C@H]1Nc1nc2c(F)c(F)cc(/C(=N/O)Nc3ccc(F)c(Cl)c3)c2[nH]1` [Example 476, N-(3-chloro-4-fluorophenyl)-2-(((3S,4S)-4-(diethylamino)tetrahydrofuran-3-yl)amino)-4,5-difluoro-N′-hydroxy-1H-benzo[d]imidazole-7-carboximidamide], 0.468 µM.
